Laboratory results from patent US20230174571A1, “METHOD OF TREATING SHIP1-MEDIATED DISEASES USING PELOROL DERIVATIVES” (Zebrapeutics Inc., priority 2020, published 2023).
Positions count from the first letter of the chain named.

Legend:
[1] = biological target: T1, PAC2 WT (Mus musculus, UniProt Q9ES52); test: Biolayer interferometry, wild-type PAC2; format: binding; details: 20 μM analyte; compared to compound I-2 or PI(3,4)P2
T1 construct: PAC1 and PAC2 consists of phosphatase and C2 domain (residues aa 402-861 and aa 402-857 respectively); made in house; host or cells: E. coli BL21 co-transformed with pBirAcm
T1 sequence (Q9ES52 402-857): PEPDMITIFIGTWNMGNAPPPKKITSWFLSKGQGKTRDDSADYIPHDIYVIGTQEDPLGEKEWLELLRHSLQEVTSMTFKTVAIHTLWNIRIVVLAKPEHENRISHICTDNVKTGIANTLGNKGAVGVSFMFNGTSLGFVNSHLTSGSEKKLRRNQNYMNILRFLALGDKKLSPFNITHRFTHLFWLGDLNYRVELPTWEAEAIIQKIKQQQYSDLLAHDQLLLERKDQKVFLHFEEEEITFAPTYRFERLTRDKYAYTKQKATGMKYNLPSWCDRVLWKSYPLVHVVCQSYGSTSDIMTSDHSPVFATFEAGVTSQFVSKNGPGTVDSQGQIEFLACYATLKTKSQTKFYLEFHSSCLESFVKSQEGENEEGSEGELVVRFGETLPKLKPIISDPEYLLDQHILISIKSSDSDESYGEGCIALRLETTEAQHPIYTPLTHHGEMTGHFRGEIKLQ
Protocol: (§1) Expression of PAC2-Avi tag for Biolayer interferometry. A sequence corresponding to Avi-tag ([…]) was added to the c-terminal end of the PAC2 in LIC-HMT-PAC2 expressing vector via standard restriction digestion and ligation. The LIC-HMT-PAC2-Avi expressing vector was then co-transformed into E. coli BL21 cells with pBirAcm expression vector in 1:1 molar ratio. Overnight culture was inoculated with a 250-fold dilution to start the actual culture. The cells were grown at 37° C. in LB medium (supplemented with 50 μg/mL of kanamycin and 10 μg/mL of chloramphenicol) with shaking speed of 225 rpm. When OD600 reached about 0.6, 5 mM of biotin in bicine buffer pH 8.3 was added to the culture to have final concentration of 125 μM of biotin. The culture was then cooled down to room temperature before the addition of 0.4 mM isopropyl-B-D-1-thiogalactopyranoside (IPTG) to induce the expression of the recombinant protein with Avi-tag. The rest of the method is identical as written in “Expression of PAC2 for crystallography”.
(§2) Biolayer interferometry. […] The association was measured for 600 s at an analyte concentration of 20 μM followed by dissociation for 300 s in the same buffer as the baseline. The raw data was analyzed using the Octet Red Data Analysis software (ver. 8.2). […]

[2] = biological target: T2, SHIP1 (Homo sapiens, UniProt Q92835); details: Stenton et al., 2013b; cited from earlier work
T2 sequence (Q92835 1-1189): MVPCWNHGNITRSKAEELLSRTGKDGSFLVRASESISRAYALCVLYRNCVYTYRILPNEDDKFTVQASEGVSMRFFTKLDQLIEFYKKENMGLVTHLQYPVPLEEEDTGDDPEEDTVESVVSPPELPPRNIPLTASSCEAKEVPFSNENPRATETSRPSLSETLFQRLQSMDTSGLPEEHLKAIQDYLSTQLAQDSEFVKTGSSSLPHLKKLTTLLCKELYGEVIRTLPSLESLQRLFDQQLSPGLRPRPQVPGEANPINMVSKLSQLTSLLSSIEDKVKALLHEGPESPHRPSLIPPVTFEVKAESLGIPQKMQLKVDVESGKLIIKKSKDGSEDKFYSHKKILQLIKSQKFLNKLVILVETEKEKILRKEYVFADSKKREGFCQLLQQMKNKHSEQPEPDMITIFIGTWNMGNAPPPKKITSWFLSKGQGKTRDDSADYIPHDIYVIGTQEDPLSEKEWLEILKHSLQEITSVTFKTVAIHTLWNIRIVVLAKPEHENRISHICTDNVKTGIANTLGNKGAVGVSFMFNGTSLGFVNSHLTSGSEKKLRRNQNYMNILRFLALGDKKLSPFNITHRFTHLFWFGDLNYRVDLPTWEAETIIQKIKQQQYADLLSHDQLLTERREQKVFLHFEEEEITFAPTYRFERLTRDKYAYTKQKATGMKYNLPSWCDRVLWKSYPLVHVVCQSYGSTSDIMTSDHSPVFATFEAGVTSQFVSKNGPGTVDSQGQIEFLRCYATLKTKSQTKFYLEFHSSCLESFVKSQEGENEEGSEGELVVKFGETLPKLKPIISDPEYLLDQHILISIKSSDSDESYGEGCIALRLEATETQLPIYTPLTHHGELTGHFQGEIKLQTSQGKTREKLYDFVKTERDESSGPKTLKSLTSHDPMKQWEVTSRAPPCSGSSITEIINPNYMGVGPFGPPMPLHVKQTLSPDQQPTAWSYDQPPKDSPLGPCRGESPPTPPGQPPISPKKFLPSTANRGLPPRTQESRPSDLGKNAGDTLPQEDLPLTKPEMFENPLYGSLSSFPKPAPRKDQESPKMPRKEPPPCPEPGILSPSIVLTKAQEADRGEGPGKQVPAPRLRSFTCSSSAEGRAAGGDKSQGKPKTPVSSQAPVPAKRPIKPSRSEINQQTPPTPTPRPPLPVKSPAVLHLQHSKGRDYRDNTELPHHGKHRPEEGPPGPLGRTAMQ

[3] = biological target: T2, SHIP1; details: scintillation proximity assay, Stenton et al; cited from earlier work
[4] = biological target: T3, Clover-SHIP1 and mRuby2-STAT3 (Mus musculus, UniProt Q9ES52); test: Acceptor photobleaching FRET analysis; format: cell-based; details: J17 SHIP1−/− cells expressing Clover-SHIP1/mRuby2-STAT3; 1 minute; 100 ng/ml IL10, IL6 or 20 μM I-2
T3 construct: expressed in transfected cells; host or cells: J17 (SHIP1-/- mouse macrophage line), lentiviral transduction
T3 sequence (P42227 whole entry partner, one chain of several): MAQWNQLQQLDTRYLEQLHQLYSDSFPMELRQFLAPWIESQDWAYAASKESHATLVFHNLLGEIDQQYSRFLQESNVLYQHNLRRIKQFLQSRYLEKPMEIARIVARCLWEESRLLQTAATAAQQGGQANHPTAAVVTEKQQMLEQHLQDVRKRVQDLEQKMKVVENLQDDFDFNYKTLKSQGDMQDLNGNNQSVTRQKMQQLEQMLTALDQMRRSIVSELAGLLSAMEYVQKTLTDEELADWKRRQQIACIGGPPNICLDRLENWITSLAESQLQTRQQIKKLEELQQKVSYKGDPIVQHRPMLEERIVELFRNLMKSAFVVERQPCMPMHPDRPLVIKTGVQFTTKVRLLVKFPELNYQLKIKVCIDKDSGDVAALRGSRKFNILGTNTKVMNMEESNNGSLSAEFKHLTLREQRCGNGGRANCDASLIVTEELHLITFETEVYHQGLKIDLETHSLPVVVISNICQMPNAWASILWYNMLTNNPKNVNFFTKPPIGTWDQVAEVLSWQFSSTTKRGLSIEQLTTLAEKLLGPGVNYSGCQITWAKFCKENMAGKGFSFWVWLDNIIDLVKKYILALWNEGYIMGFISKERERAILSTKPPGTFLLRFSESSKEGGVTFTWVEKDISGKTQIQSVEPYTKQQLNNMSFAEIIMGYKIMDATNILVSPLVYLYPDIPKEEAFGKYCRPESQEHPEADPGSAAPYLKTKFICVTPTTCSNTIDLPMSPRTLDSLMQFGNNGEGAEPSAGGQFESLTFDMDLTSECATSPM
Protocol: Acceptor Photobleaching FRET analysis. J17 cells expressing Clover-SHIP1 and/or mRuby2-STAT3 were seeded at 50×10^4 cells per well in 8-well Ibidi p-Slides (Ibidi GmbH, Martinsried, Germany). After overnight incubation, cells were serum-starved with Mac media containing 1% serum for 3 hours before media replacement with Leibovitz's (L-15) media (Invitrogen, Burlington, ON) supplemented with 1% serum, 10 μM β-mercaptoethanol, 150 μM monothioglycolate and 1 mM L-glutamine for confocal microscopy imaging. Cells were imaged on a Leica SP8X on DMi8 confocal microscope system with a 63×/1.3 Gly HC PL APO CS2 objective using a white light laser line with 488 nm for donor excitement and 555 nm for acceptor excitement. Photobleaching FRET analysis was performed by measuring Clover-SHIP1 donor fluorescence intensity before and after bleaching the acceptor, mRuby2-STAT3, within a field of cells ‘region of interest’ (ROI), at 100% laser intensity for 60 frames. Acceptor photobleaching was performed first in resting cells then at 1 minute (±5 seconds) following ‘mock’ stimulation with L-15 media, or L-15 media containing 100 ng/ml IL10, IL6 or 20 μM compound I-2. Donor and acceptor fluorescence intensity of individual cells within the bleached ROI was quantified before and after bleaching. Percentage FRET efficiency was calculated as % FRETeff=100×(Dpost−Dpre)/Dpost where Dpre and Dpost represent Clover-SHIP1 donor fluorescence intensity before and after bleaching, respectively.

[5] = biological target: T4, SHIP1 and STAT3 (Mus musculus, UniProt Q9ES52); test: In vitro pull down assay of His6-SHIP1 with STAT3; format: cell-based; details: J17 His6-SHIP1 cells; 100 ng/ml IL10 or IL6, 20 μM compound I-2; 5 minutes
T4 construct: expressed in transfected cells; host or cells: J17 (SHIP1-/- mouse BMDM-derived line), lentiviral transduction
T4 sequence (Q9ES52 1-1191): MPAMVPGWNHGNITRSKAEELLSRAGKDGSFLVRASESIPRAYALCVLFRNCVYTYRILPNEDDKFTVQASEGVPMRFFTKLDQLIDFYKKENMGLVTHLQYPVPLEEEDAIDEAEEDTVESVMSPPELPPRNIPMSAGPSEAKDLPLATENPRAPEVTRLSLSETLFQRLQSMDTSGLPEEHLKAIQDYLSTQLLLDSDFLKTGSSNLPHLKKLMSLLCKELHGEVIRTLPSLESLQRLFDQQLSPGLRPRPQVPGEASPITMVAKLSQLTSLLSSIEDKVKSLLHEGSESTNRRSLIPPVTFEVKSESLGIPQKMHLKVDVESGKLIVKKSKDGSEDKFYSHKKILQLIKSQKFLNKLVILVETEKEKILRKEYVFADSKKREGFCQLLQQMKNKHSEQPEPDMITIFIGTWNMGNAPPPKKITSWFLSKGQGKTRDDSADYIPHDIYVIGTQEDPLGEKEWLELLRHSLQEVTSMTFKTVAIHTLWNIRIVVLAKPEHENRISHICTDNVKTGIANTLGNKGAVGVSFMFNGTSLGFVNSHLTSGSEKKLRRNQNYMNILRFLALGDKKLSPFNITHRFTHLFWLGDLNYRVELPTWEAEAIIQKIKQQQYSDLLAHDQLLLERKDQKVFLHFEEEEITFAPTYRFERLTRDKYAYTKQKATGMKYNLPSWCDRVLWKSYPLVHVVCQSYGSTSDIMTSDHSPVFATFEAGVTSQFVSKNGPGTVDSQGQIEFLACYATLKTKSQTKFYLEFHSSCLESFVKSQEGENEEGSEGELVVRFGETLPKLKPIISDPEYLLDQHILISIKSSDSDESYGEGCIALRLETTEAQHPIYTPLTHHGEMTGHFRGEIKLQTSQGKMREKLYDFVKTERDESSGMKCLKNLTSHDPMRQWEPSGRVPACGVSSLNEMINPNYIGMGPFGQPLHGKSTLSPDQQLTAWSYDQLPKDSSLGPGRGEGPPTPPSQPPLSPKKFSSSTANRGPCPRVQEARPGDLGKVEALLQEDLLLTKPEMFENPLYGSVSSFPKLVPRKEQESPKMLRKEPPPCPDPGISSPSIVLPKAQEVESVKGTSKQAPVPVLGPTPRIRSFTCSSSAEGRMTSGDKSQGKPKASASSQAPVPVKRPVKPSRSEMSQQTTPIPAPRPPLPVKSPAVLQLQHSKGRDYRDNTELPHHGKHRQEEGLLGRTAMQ
Protocol: In vitro pull down assay. J17 His6-SHIP1 and Y190F cells were seeded at 2×10^6 cells per well in a 6-well plate. After overnight incubation, fresh cell media was added for 30 minutes before stimulation with 100 ng/ml IL10, […] or 20 μM compound I-2 for 5 minutes. Cells were lysed with Protein Solubilization Buffer (PSB, 50 mM Hepes, pH 7.5, […], 10 mM Na Pyrophosphate, 2 mM NaVO4, 2 mM Na Molybdate, 2 mM EDTA) containing 1% octylglucoside, 0.01 M imidazole, and protease inhibitor cocktail (Roche Diagnostics, Laval, QC) for 30 minutes at 4° C. and centrifuged at 10000 rpm for 15 minutes. EDTA resistant Ni beads (Roche Diagnostics, Laval, QC) were added to supernatants and the mixture incubated at 4° C. for 1 hour before spinning down and washing of beads three times with 0.1% octylglucoside wash buffer in PSB. Bead samples and starting material cell lysates were separated on a 7.5% SDS-PAGE gel.
Immunoblotting. Protein lysates were separated on SDS-PAGE gels and transferred onto polyvinylidene fluoride (PVDF) membrane (Millipore, Etobicoke, ON). Membranes were blocked and probed, where appropriate, with the following primary antibodies overnight: SHIP1 (P1C1) (Santa Cruz Biotechnology), pSHIP1 (Y190) (Kinexus), STAT3 (9D8) (ThermoFisher Scientific), pSTAT3 (Y705) (Thermo Fisher Scientific), STAT1 (BD Transduction Laboratories), pSTAT1 (Y701) (Upstate Biotechnology), GAPDH and actin (Sigma-Aldrich). Membranes were developed with either Alexa Fluor® 660 anti-mouse IgG or Alexa Fluor® 680 anti-rabbit IgG antibodies (Thermo Fisher Scientific) and imaged using a LI-COR Odyssey Imager.

[6] = biological target: T5, PAC2-K681A (Mus musculus, UniProt Q9ES52, K681A); test: Biolayer interferometry, PAC2-K681A; format: binding; details: 20 μM analyte; K681A vs wild-type PAC2
T5 construct: PAC1 and PAC2 consists of phosphatase and C2 domain (residues aa 402-861 and aa 402-857 respectively); made in house; host or cells: E. coli BL21 co-transformed with pBirAcm
T5 sequence (Q9ES52 402-857 K681A): T1 sequence (Q9ES52 402-857) with K280A
Protocol: as §1, §2

Compound: C=C1CC[C@H]2[C@H](CN)[C@@H]([C@@]3(C)CC[C@H](O)C[C@@H]3CO)CC[C@]12C [AQX-1125/Rosiptor]
- binding to SHIP1 (PAC2 WT) in BLI assay [1]: binds very poorly
- SHIP1 phosphatase enhancing activity [2]: marginal
- signal of tritiated compound binding to SHIP1 protein [3]: ~300 cpm

Compound: IL6: pro-inflammatory cytokine IL6
- Clover-mRuby2 FRET signal [4]: not
- association (co-precipitation) of SHIP1 and STAT3 [5]: failed to induce STAT3 association with SHIP1

Compound: PI(3,4)P2 [reference compound]
- binding to PAC2 with K681A substitution (BLI) [6]: impairs
